Results reported in patent publication US12715851B2, “4′-substituted analogues of fisetin and their use in the treatment of cancer” (Stellenbosch University, priority 2020, dated 2026).
“Also recorded” adds a separate entry of the source.

Experiments:
A549 cells [1] = test: Trypan blue cell exclusion assay, cell proliferation and death; format: cell-based; details: Homo sapiens, A549, 48 h, read-out: IC50 concentration
Description: (§1) To evaluate the effect of Fisetin analogues 3a, 3c and 3e on cell proliferation and death of human lung cancer cells, trypan blue cell exclusion assays were performed. A549 and H1299 cancer cells were treated with different concentrations of three selected Fisetin analogues for 48 h. The Fisetin analogues decreased the viability of cells and caused cell death in both the cell lines in a concentration dependent fashion. A549 and H1299 cells were treated with 5, 10 and 20 μM of Fisetin analogues for 48 h. All three analogues decreased cell proliferation and induced cell death.

H1299 lung cancer cells [2] = test: as above; format: cell-based; details: Homo sapiens, NCI-H1299, H1299, 48 h, read-out: IC50 concentration
Description: as §1

A549 cells [3] = test: Western blot of signalling, cell cycle and apoptosis markers; format: cell-based, human; details: IC50 concentration and 20 μM
Excerpt: (§2) Similarly, in H1299 cells analogue 3a induced a 11.7 to 14.9% cell death (FIG. 4D right) compared to 3.8% in control cells. Analogue 3c (FIG. 4E right) and analogue 3e (FIG. 4F right) induced cell death of 8.2 to 15.1% and 8.8 to 16.6% respectively. For western blot experiments, two concentrations were used, i.e. the IC50 concentration and the next higher concentration utilized for cell proliferation for each cell line.
The expression of pro-oncogenic signalling molecules, which are involved in proliferation and survival of cancer cells, were evaluated.
The effect of the Fisetin analogues on molecular markers of apoptosis was assessed.

H1299 cells = test: as above; format: cell-based, human
Excerpt: as §2
In H1299 cells (FIG. 4H), the higher concentrations of all three Fisetin analogues decreased the expression of pErk1/2. […]
The decreased expression of these proteins explains the decreased cell proliferation in both A549 and H1299 cells. […] Consistent with A549 data, all three the Fisetin analogues decreased the expression of anti-apoptotic protein Bcl-2 at both the concentrations. In H1299 cells, all the analogues increased cleaved Caspase-3 compared to control untreated cells. Thus, modulation of apoptosis regulatory proteins has caused apoptosis in both A549 and H1299 cells by the tested Fisetin analogues.

A549 [4] = test: Cell cycle distribution, propidium iodide flow cytometry; format: cell-based, human; details: 10 & 20 μM, 48 h
Description: (§3) To examine the effect of Fisetin analogues on cell cycle regulation, cells were treated with different concentrations of Fisetin analogues (5, 10 & 20 μM) for 48 h, then stained with propidium iodide and subjected to flow cytometry. All three of the tested Fisetin analogues induced G2/M phase cell cycle arrest in A549 (FIGS. 5A-5C) and H1299 human lung cancer cells (FIGS. 5D-5F).

[5] = tested on: H1299 human lung cancer cells; test: as above; format: cell-based; details: 48 h; for G2/M phase arrest: H1299
Description: as §3

A549 [6] = test: Apoptosis assay; format: cell-based, human; details: 48 h, control cells 4.7%
Excerpt: (§4) In A549, analogue 3a induced 8.2 and 11.2% apoptosis, analogue 3c induced 13.4 and 17.2% apoptosis, and analogue 3e induced 10.6 to 19.5% apoptosis compared to 4.7% in control cells (FIG. 6A).

H1299 cancer cells = test: Apoptosis assay; format: cell-based, human; details: 48 h
Excerpt: [Worded in the source for another cell line; used here, by the source, with some conditions changed.] as §4

[7] = tested on: A549 lung cancer cell line; test: MTT cell proliferation assay, cytotoxicity after 48 h treatment; format: cell-based, human; details: for variation in cytotoxicity with A-ring substitution: A549, 4′-Br analogues; for activity against lung cancer cell lines compared with the parent Fisetin: A549 and/or H1299
Description: These 4′-substituted Fisetin analogues were initially screened for cytotoxicity against the A549 lung cancer cell line following a 48 h treatment period. Cytotoxicity IC50's were quantified using the MTT cell proliferation assay. The compounds were not found to interfere with the assay by causing an increase in background absorbance, no correlation was found between the lipophilicity and cytotoxicity at this position, and the substituent size was also not found to be important.

H1299 lung cancer cells [8] = test: Cytotoxicity / cell viability of H1299 cells; format: cell-based, human; details: 4′-Br analogues
Excerpt: Analogues were also synthesised to all contain Br in the B-ring 4′-position, and in which the A-ring substitution pattern alone was varied. […] Based on the strong activity of analogue 3c, it was selected together with analogues 3a and 3e for further mechanistic evaluation in lung cancer cells.

[9] = cited from earlier work

O=c1c(O)c(-c2ccc(Br)cc2)oc2ccccc12 [analogue 3a, 4′-Bromo-3-hydroxyflavone]
IC50 (A549 cells [1]): 11.9 µM | IC50 (H1299 lung cancer cells [2]): 4.5 µM | cleaved caspase-3 (A549 cells [3]): increased the cleavage of caspase-3 significantly | expression of p21 (A549 cells [3]): increased the expression of p21 marginally at both the concentrations | expression of phospho Cdc-2 (A549 cells [3]): slightly decreased the phospho form of Cdc-2 at higher concentration | expression of phospho-Erk1/2 (A549 cells [3]): decreased the expression of phospho-Erk1/2 significantly at both the concentrations | expression of pro-apoptotic protein Bax (A549 cells [3]): slightly increased the expression of pro-apoptotic protein Bax | total Stat-3 expression (A549 cells [3]): not affected | total form of Akt (A549 cells [3]): slightly downregulated | total form of Erk1/2 (A549 cells [3]): not affected | Phospho-Cdc-2 expression (H1299 cells; IC50 concentration and 10 μM): marginally decreased | Total Cdc-2 (H1299 cells; IC50 concentration and 10 μM): marginally affected by higher concentration | expression of Bax (H1299 cells; IC50 concentration and 10 μM): slightly higher | expression of phospho Akt (H1299 cells; IC50 concentration and 10 μM): did not affect the expression of phospho and total Akt at both the concentrations | expression of phospho-EGFR (H1299 cells; IC50 concentration and 10 μM): lower concentration of analogue 3a did not affect the expression of both phospho and total EGFR; also recorded: higher concentration of analogue 3a significantly decreased the expression of both phospho and total EGFR | expression of total Akt (H1299 cells; IC50 concentration and 10 μM): did not affect the expression of phospho and total Akt at both the concentrations | expression of total EGFR (H1299 cells; IC50 concentration and 10 μM): lower concentration of analogue 3a did not affect the expression of both phospho and total EGFR; also recorded: higher concentration of analogue 3a significantly decreased the expression of both phospho and total EGFR | G2/M phase arrest (A549 [4]): induced G2/M phase arrest in both the cell lines significantly | G2/M phase arrest ([5]; 10 & 20 μM): induced G2/M phase arrest in both the cell lines significantly | apoptosis (A549 [6]; IC50 concentration): 8.2% | apoptosis (A549 [6]; higher concentration 20 μM): 11.2% | apoptosis (H1299 cancer cells; IC50 concentration): 13.2% | apoptosis (H1299 cancer cells; higher concentration 10 μM): 17.8%

COCOc1ccc2c(=O)c(O)c(-c3ccc(Br)cc3)oc2c1 [analogue 3b, 4′-Bromo-3-hydroxy-7-methoxymethoxyflavone]
variation in cytotoxicity with A-ring substitution [7]: little variation in cytotoxicity | variation in cytotoxicity with A-ring substitution (H1299 lung cancer cells [8]): little variation in cytotoxicity

COCOc1ccc2oc(-c3ccc(Br)cc3)c(O)c(=O)c2c1 [analogue 3d, 4′-Bromo-3-hydroxy-6-methoxymethoxyflavone]
variation in cytotoxicity with A-ring substitution [7]: little variation in cytotoxicity | variation in cytotoxicity with A-ring substitution (H1299 lung cancer cells [8]): little variation in cytotoxicity

O=c1c(O)c(-c2ccc(Br)cc2)oc2ccc(O)cc12 [analogue 3e, 4′-Bromo-3,6-dihydroxyflavone]
variation in cytotoxicity with A-ring substitution [7]: little variation in cytotoxicity | variation in cytotoxicity with A-ring substitution (H1299 lung cancer cells [8]): little variation in cytotoxicity | IC50 (A549 cells [1]): 12.3 µM | IC50 (H1299 lung cancer cells [2]): 3.1 µM | cleaved caspase-3 (A549 cells [3]): both the concentrations of analogue 3e increased the cleaved caspase-3 marginally | expression of p21 (A549 cells [3]): increased the p21 expression to a much higher level at both the concentrations | expression of phospho Cdc-2 (A549 cells [3]): IC50 concentration decreased the expression to some extent; also recorded: the higher concentrations decreased the phospho-Cdc-2 expression significantly | expression of phospho-Erk1/2 (A549 cells [3]): decreased the expression of phospho-Erk1/2 significantly at both the concentrations | expression of phospho-Stat-3 (A549 cells [3]): completely abolished the expression of p-Stat-3 | expression of pro-apoptotic protein Bax (A549 cells [3]): increased the expression of Bax with much higher potential | total Stat-3 expression (A549 cells [3]): significantly decreased the expression of total Stat-3 | total form of Akt (A549 cells [3]): decreased the expression of total Akt at both the concentrations | total form of Erk1/2 (A549 cells [3]): not affected | Phospho-Cdc-2 expression (H1299 cells; IC50 concentration and 10 μM): both concentrations of analogue 3e decreased the expression of phospho-Cdc-2 | Total Cdc-2 (H1299 cells; IC50 concentration and 10 μM): no effect | expression of Bax (H1299 cells; IC50 concentration and 10 μM): increased the expression of pro-apoptotic protein Bax | expression of phospho Akt (H1299 cells; IC50 concentration and 10 μM): significantly decrease the phospho Akt | expression of phospho-EGFR (H1299 cells; IC50 concentration and 10 μM): significantly decreased the expression of phospho-EGFR | expression of total Akt (H1299 cells; IC50 concentration and 10 μM): did not affect the total Akt | expression of total EGFR (H1299 cells; IC50 concentration and 10 μM): did not affect the expression levels of total EGFR | expression of total Erk1/2 (H1299 cells; IC50 concentration and 10 μM): decreased the expression of total Erk1/2 significantly | expression of total Stat-3 (H1299 cells; higher concentration (10 μM)): decreased the expression of total Stat-3 at higher concentrations | G2/M phase arrest (A549 [4]): induced G2/M phase arrest in both the cell lines significantly | S-phase arrest ([5]; 20 μM, cell line not given): induced S-phase arrest | G2/M phase arrest ([5]; 5 μM): induced G2/M phase arrest | G2/M phase arrest ([5]; 10 & 20 μM): induced G2/M phase arrest in both the cell lines significantly | apoptosis (A549 [6]; IC50 concentration): 10.6% | apoptosis (A549 [6]; higher concentration 20 μM): 19.5% | apoptosis (H1299 cancer cells; IC50 concentration): 12.1% | apoptosis (H1299 cancer cells; higher concentration 10 μM): 19.5%

O=c1c(O)c(-c2ccc(Br)cc2)oc2cccc(O)c12 [analogue 3f, 4′-Bromo-3,5-dihydroxyflavone]
variation in cytotoxicity with A-ring substitution [7]: little variation in cytotoxicity | variation in cytotoxicity with A-ring substitution (H1299 lung cancer cells [8]): little variation in cytotoxicity

O=c1c(O)c(-c2ccc(Cl)cc2)oc2cc(O)ccc12 [analogue 3g, 4′-Chloro-3,7-dihydroxyflavone]
cytotoxicity, in words ([7]; A549, MTT, 48 h): particularly active | activity against lung cancer cell lines compared with the parent Fisetin [7]: substantially more active

COc1ccc(-c2oc3cc(O)ccc3c(=O)c2O)cc1 [analogue 3m, 4′-Methoxy-3,7-dihydroxyflavone]
activity compared to that predicted by the para-Hammett constant ([7]; A549, MTT, 48 h): enhanced activity compared to that predicted by the para-Hammett constant

O=c1c(O)c(-c2ccc(C(F)(F)F)cc2)oc2cc(O)ccc12 [analogue 3n, 4′-Trifluoromethyl-3,7-dihydroxyflavone]
cytotoxicity, in words ([7]; A549, MTT, 48 h): particularly active | activity against lung cancer cell lines compared with the parent Fisetin [7]: substantially more active

CS(=O)(=O)c1ccc(-c2oc3cc(O)ccc3c(=O)c2O)cc1 [analogue 3p, 4′-Methylsulfone-3,7-dihydroxyflavone]
cytotoxicity, in words ([7]; A549, MTT, 48 h): particularly active | activity against lung cancer cell lines compared with the parent Fisetin [7]: substantially more active

O=c1c(O)c(-c2ccc(O)c(O)c2)oc2cc(O)cc(O)c12 [quercetin]
pKa of the 4′-hydroxyl group [9]: ~ 9.4 | pKa of the 7-hydroxyl group ([9]; most acidic position): ~ 7.3
